Laboratory results as given in patent US20190269656A1, “Combination Therapies Using Indazolylbenzamide Derivatives for the Treatment of Cancer” (ESANEX, INC., priority 2016, published 2019).

Tests used:
[1] = Tolerability: treatment-emergent adverse events and MTD, SNX-5422 dose escalation plus everolimus in NET patients; format: in vivo; conditions: in combination with everolimus, once every other day for 21 days of 28-day cycle
Description: (§1) Starting on Day 1, SNX-5422 was dosed once every other day for 21 days (11 doses), followed by a 7-day drug free period. SNX-5422 was dosed each morning starting at 50 mg/m^2 with standard 3+3 dose escalation. The actual dose administered was based on body surface area, calculated using body weight measured at the start of each cycle and height at Screening. The calculated dose was then rounded to the nearest mg on dosing chart. Everolimus was dosed at 10 mg once daily in the evening (at least 8 hours after SNX-5422 dosing) for 28 days, with dose de-escalation allowed based on EVR toxicity. Eligible patients were to have unresectable gastro-entero-pancreatic or pulmonary NETs and less than 5 prior lines of anti-cancer treatment.
Results: Seventeen patients (10 male, 7 female; median age 59 years) with NETs were enrolled in the study. The maximum tolerated dose (MTD) of SNX-5422 was determined to be 75 mg/m^2 in combination with everolimus.
Tolerability: Most frequent (i.e., occurring in 6 or more patients overall) Treatment-Emergent Adverse Events (TEAEs) are provided in Table 1. All patients reported at least one TEAE. Diarrhea was the most commonly reported TEAE, occurring in 80% of patients overall. In 13 patients (65%), the event was considered related to the combination of SNX-5422 and everolimus. […]

[2] = test system: unresectable gastro-entero-pancreatic or pulmonary NETs; assay: Tumor response by RECIST 1.1 in NET patients treated with SNX-5422 plus everolimus; format: in vivo, human
Description: as §1
Tumor response was assessed at the end of every 2 cycles±2 weeks, using RECIST 1.1 criteria (Eisenhauer et al. European Journal of Cancer 45:228-247 (2009)). Partial Response (PR) was defined as at least a 30% decrease in the sum of diameters of target lesions, taking as reference the baseline sum diameters. Progressive Disease (PD) was defined as at least a 20% increase in the sum of diameters of target lesions, taking as reference the smallest sum on study. Stable disease is noted where there is no sufficient shrinkage to qualify for PR or no sufficient increase to qualify for PD.

[3] = test system: advanced, non-functional neuroendocrine tumours of the lung or gastrointestinal tract; conditions: everolimus only, without SNX-5422; patients with NETs; RADIANT-4; cited from earlier work
[4] = of 17 NET patients evaluable, SNX-5422 plus everolimus, RECIST 1.1
[5] = patients previously treated with 2 or less prior lines of treatment (FIG. 2), SNX-5422 plus everolimus
[6] = six patients, GI tract/lung/unknown carcinoid, ≤2 prior lines and Ki67<20% (FIG. 4), SNX-5422 plus everolimus

## CC1(C)CC(=O)c2c(C(F)(F)F)nn(-c3ccc(C(N)=O)c(N[C@H]4CC[C@H](OC(=O)CN)CC4)c3)c2C1 [SNX-5422, trans-4-({2-(aminocarbonyl)-5-[6,6-dimethyl-4-oxo-3-(trifluoromethyl)-4,5,6,7-tetrahydro-1H-indazol-1-yl]phenyl}amino)cyclohexyl glycinate]
[1]
  maximum tolerated dose (MTD): 75 mg/m^2
[2]; combination of SNX-5422 plus everolimus, NET patients
  subjects receiving ongoing treatment for over 2 years (i.e., ≥30 cycles): 2 subjects
[2]; [4]
  partial response as best response, % of patients: 18%
  partial response as best response, number of patients: 3 patients
  progressive disease as best response, % of patients: 18%
  progressive disease as best response, number of patients: 3 patients
  stable disease as best response, % of patients: 64%
  stable disease as best response, number of patients: 11 patients
[2]; one patient with GI NET, 30 treatment cycles, SNX-5422 plus everolimus
  tumor reduction: 31%
[2]; one patient with lung carcinoid, 10 treatment cycles, SNX-5422 plus everolimus
  tumor reduction: 51%
[2]; one patient with unknown carcinoid, 35 treatment cycles, SNX-5422 plus everolimus
  tumor reduction: 36%
[2]; one patient, SNX-5422 plus everolimus
  reduction in target lesion size: 51%
[2]; patient with pulmonary carcinoid NET, after 4 cycles of treatment, baseline 4.25 cm, SNX-5422 plus everolimus
  tumor measurement, second diameter (CT scan left iliac adenopathy): 2.42 cm
[2]; patient with pulmonary carcinoid NET, after 4 cycles of treatment, baseline 6.51 cm, SNX-5422 plus everolimus
  tumor measurement, first diameter (CT scan left iliac adenopathy): 3.75 cm
[2]; [5]
  partial response as best response, number of patients: 3 patients
  progressive disease as best response, number of patients: 1 patients
  stable disease as best response, number of patients: 7 patients
[2]; [6]
  overall response rate: 50%
  partial response, number of patients: three

## CO[C@H]1C[C@@H]2CC[C@@H](C)[C@@](O)(O2)C(=O)C(=O)N2CCCC[C@H]2C(=O)O[C@H]([C@H](C)C[C@@H]2CC[C@@H](OCCO)[C@H](OC)C2)CC(=O)[C@H](C)/C=C(\C)[C@@H](O)[C@@H](OC)C(=O)[C@H](C)C[C@H](C)/C=C/C=C/C=C/1C [everolimus, (1R,9S,12S,15R,16E,18R,19R,21R,23S,24E,26E,28E,30S,32S,35R)-1,18-dihydroxy-12-{(1R)-2-[(1 S,3R,4R)-4-(2-hydroxyethoxy)-3-methoxycyclohexyl]-1-methylethyl}-19,30-dimethoxy-15,17,21,23,29,35-hexamethyl-11,36-dioxa-4-aza-tricyclo[30.3.1.04,9]hexatriaconta-16,24,26,28-tetraene-2,3,10,14,20-pentaone]
[3]
  partial response rate, % of patients: about 2%
